Experimental data published in BindingDB's records for doi:10.1016/j.bmcl.2003.07.008 (University of Lille, 2003).

Assay: Inhibition of 1-monooleoyl glycerol (MOG) induced beta-hematin formation

Point of comparison: `CC(C)CN(CCCN1CCN(CCCNc2ccnc3cc(Cl)ccc23)CC1)CC(C)C` [7-chloro-N-(3-(4-(3-(diisobutylamino)propyl)piperazin-1-yl)propyl)quinolin-4-amine], IC50 43.4 µM. Against it:
- CC(C)CN(CCCN1CCN(CCCNc2nc3ccccc3[nH]2)CC1)CC(C)C [(1H-Benzoimidazol-2-yl)-{3-[4-(3-diisobutylamino-propyl)-piperazin-1-yl]-propyl}-amine] — within 1.5-fold, 63.6 µM
- CC(C)CN(CCCN1CCN(CCCNc2nc3ccccc3o2)CC1)CC(C)C [Benzooxazol-2-yl-{3-[4-(3-diisobutylamino-propyl)-piperazin-1-yl]-propyl}-amine] — higher, > 200 µM
- CC(C)CN(CCCN1CCN(CCCNCc2ccncc2)CC1)CC(C)C [Diisobutyl-[3-(4-{3-[(pyridin-4-ylmethyl)-amino]-propyl}-piperazin-1-yl)-propyl]-amine] — higher, > 200 µM
- CC(C)CN(CCCN1CCN(CCCNc2cnccn2)CC1)CC(C)C [{3-[4-(3-Diisobutylamino-propyl)-piperazin-1-yl]-propyl}-pyrazin-2-yl-amine] — higher, > 200 µM
- CC(C)CN(CCCN1CCN(CCCNc2ccnc3ccccc23)CC1)CC(C)C [{3-[4-(3-Diisobutylamino-propyl)-piperazin-1-yl]-propyl}-quinolin-4-yl-amine] — within 1.5-fold, 62.3 µM
